Experimental data reported in patent US9474763B2, “Compositions and methods for amelioration and prevention of drug-induced toxicity” (priority 2012, dated 2016).
Read-outs that look alike come from different tables or passages of the source.

Legend:
[1] = Body weight of fasted mice given APAP (weight ratio / difference between days); assay type: in vivo
From the text: Table 9 presents the effect of each combination on body weight loss, as determined by the ratio of the mice body weight between Day 0 and Day 2.
Table 12 presents the effect of each combination on body weight loss, as determined by the ratio of the mice body weight between Day 0 and Day 2 and by the difference in the mice body weight between Day 1 (immediately after administration of APAP with the different combinations and before food was returned) and Day 2.
Table 18 presents the effect of each combination on body weight, as determined by the difference in the mice body weight between Day 1 (immediately after administration of APAP with the different combinations and before food was returned) and Day 2.
This combination was tested for its effect on toxicity induced by APAP using the procedure described in Example 1 above with several modifications, as described below. Mice were allocated into four groups of six mice each, as detailed in Table 19 below. Food was taken on the afternoon (18:00) of Day 0. Mice were orally administered APAP 15 hours later (9:00 next morning, Day 1) by gavage administration. NAC was administered PO with APAP. MSM+IB were administered 1.5 h later. Following another 1.5 h, PC was administered. Food was returned 3.5 h after APAP administration (Day 1). Weight was determined three times: on Day 0 before food was taken, after over-night fasting (Day 1, just before APAP administration) and before sacrifice (Day 2, 24 hours after APAP administration).

[2] = tested on: ConA-activated splenocytes; experiment: IFN-γ secretion by ConA-activated splenocytes from treated mice (ELISA); assay type: cell-based; conditions: FIG. 5; groups A, B, C, D of Table 24; 5 μg ConA, 20 h; p=NS
Protocol: After mice were sacrificed, spleens from five mice from each group were taken and splenocytes were isolated by the following procedure: Isolation of splenocytes: Spleens were stored in RPMI-1640 medium supplemented with FCS. Spleens were crushed through a 70-μm nylon cell strainer (Falcon) and centrifuged (1,250 rpm for 7 min.). Red blood cells were lysed in 1 ml of cold 155 mM ammonium chloride lysis buffer. Splenocytes were washed and resuspended in 1 ml of RPMI supplemented with FCS. The viability of cells as assessed by trypan blue exclusion exceeded 90%. Next, splenocytes (1×10^6 per mouse, per well, in duplicates) were moved into a 24 well plate containing RPMI-1640 supplemented with 10% FCS, 1% penicillin/streptomycin (P/S), 1% glutamine, 1% sodium pyruvate and 1% non-essential amino acid. […] After incubation cells from all wells were moved to Eppendorff tubes and centrifuged for 5 minutes. Then supernatants were collected and freezed in −80° C. until assayed for IFN-γ by ELISA. Cytokine determination: Levels of IFN-γ were determined by “sandwich” ELISA using commercial kit according to the manufacturer's instructions (Quantikine, R&D Systems, Minneapolis, Minn., USA).

toxicity induced by APAP [3] = conditions: for effect on liver enzymes serum levels: Example 2, Tables 3 and 4, 0.1-0.4 mg/mouse with APAP 4 mg; for beneficial effect on acetaminophen-induced liver toxicity: mice, administered together with, or following, large dosage of acetaminophen
Protocol: IB was tested for its effect on toxicity induced by APAP in comparison to NAC using the following procedure: Mice were allocated into four groups of six mice each, as described in Table 1 below. The mice received sub-lethal hepatotoxic doses of APAP, causing liver damage equivalent to consumption of approximately 10 gr APAP (20 caplets of 500 mg) per 70 kg man.
Food was taken on the afternoon (18:00) of Day 0. Mice were orally administered APAP, APAP+IB or APAP+NAC 15 h hours later (9:00 next morning, Day 1) by gavage administration. A total of 350 μl were administered, containing the different components in the desired concentrations in PBS. Food was returned 2 h after APAP administration (Day 1). For all groups, mice were weighted daily, and blood samples were taken 24 h hours after APAP administration (Day 2). Serum levels of the liver enzymes aspartate aminotransferase (AST) and alanine aminotransferase (ALT) were measured using a Reflovet® Plus clinical chemistry analyzer (Roche Diagnostics, GmbH, Mannheim, Germany). Serum samples were diluted before the measurements, as needed.
The following combinations were tested using the same procedure described in Example 1 above, and compared to 4 mg APAP+3 or 3.5 mg NAC: […]
This combination was tested for its effect on toxicity induced by APAP using the procedure described in Example 1 above. […]
Mice were treated according to the procedure describe in Example 1 above.

toxicity induced by APAP [4] = experiment: Liver biopsy histology (H&E) 24 h after APAP administration; assay type: in vivo, mice
Protocol: In addition, liver biopsies were performed. For histopathology, livers from individual mice were fixed in 10% formaldehyde solution and kept at room temperature until use. The tissue blocks were then embedded in paraffin, […] sections were cut and stained with hematoxylin and eosin (H&E) for morphological examination. […] Improved liver architecture with no evidence for cellular damage and necrosis can be seen in all treated groups.

[5] = Table 12, per mouse APAP 4 mg, NAC 3.5 mg, PC 0.9 mg after 3 h
[6] = Table 15, APAP 4 mg/mouse alone or + NAC 3.5 mg, PC 0.9 mg after 3 h
[7] = Table 15, APAP 4.6 mg/mouse alone or + NAC 3.5 mg, PC 0.9 mg after 3 h
[8] = Table 21, APAP 7 mg/mouse alone or + NAC 3.5 mg/mouse
[9] = Table 2, serum 24 h after APAP, PO, APAP 4 mg/mouse alone or + NAC 3 mg/mouse
[10] = Table 3, 24 h, PO, APAP 4 mg/mouse alone or + NAC 3 mg/mouse
[11] = Table 4, 24 h, PO, APAP 4 mg/mouse alone or + NAC 3.5 mg/mouse
[12] = Table 6, 24 h, PO, APAP 4 mg/mouse alone or + NAC 3.5 mg/mouse
[13] = Table 8, 24 h, PO, APAP 4 mg/mouse alone or + NAC 3 mg/mouse
[14] = Table 11, 24 h, PO, per mouse APAP 4 mg, NAC 3.5 mg, PC 0.9 mg after 3 h
[15] = Table 14, 24 h, PO, APAP 4 mg/mouse alone or + NAC 3.5 mg, PC 0.9 mg after 3 h
[16] = Table 14, 24 h, PO, APAP 4.6 mg/mouse alone or + NAC 3.5 mg, PC 0.9 mg after 3 h
[17] = Table 17, 24 h, PO, per mouse APAP 4 mg, NAC 3.5 mg, MSM 1.5 mg
[18] = Table 20, 24 h, PO, APAP 7 mg/mouse alone or + NAC 3.5 mg/mouse
[19] = Table 23, 24 h, PO, per mouse APAP 4 mg, MSM 0.15 mg, IB 0.1 mg
[20] = Table 27, 24 h, PO, per mouse APAP 4.6 mg, NAC/Cys/Met 3.5 mg, PC 0.9 mg, MSM 0.2 mg, IB 0.1 mg
[21] = Table 30, APAP 4.6 mg with NAC/Cys/Met 3.5 mg, MSM 0.1 mg + IB 0.1 mg after 1.5 h, PC 0.9 mg after 3 h
[22] = Table 33, 24 h, PO, per mouse APAP 4.6 mg, NAC/Cys/Met 3.5 mg

CC(=O)Nc1ccc(O)cc1 [APAP, N-(4-hydroxyphenyl)acetamide]
decrease in body weight during the two days of the experiment ([1]; Example 4, Table 9, APAP 4 mg/mouse only): 6%
decrease in body weight during the two days of the experiment ([1]; Example 8, Table 28, APAP 4.6 mg only): more than 8%
decrease in body weight during the two days of the experiment ([1]; Example 8, Table 31, APAP 4.6 mg only): more than 8%
decrease in body weight during the two days of the experiment ([1]; Example 8, Table 34, APAP 4.6 mg only): more than 6%
Weight ratio Day 0-Day 2 ([1]; Table 9, APAP 4 mg/mouse alone or + NAC 3 mg/mouse, PO): 94.17%
Weight difference Day 1 − Day 2 [1, 5]: 1.17
Weight ratio Day 1-Day 2 [1, 5]: 105%
Weight difference Day 1 − Day 2 [1, 6]: 2.07
Weight ratio Day 1-Day 2 [1, 6]: 108%
Weight difference Day 1 − Day 2 [1, 7]: 1.02
Weight ratio Day 1-Day 2 [1, 7]: 104%
Weight difference Day 1 − Day 2 ([1]; Table 18, per mouse APAP 4 mg, NAC 3.5 mg, MSM 1.5 mg): 1.05
Weight difference Day 1 − Day 2 [1, 8]: −0.45
Weight ratio Day 1-Day 2 [1, 8]: 98%
Weight ratio Day 0-Day 2 ([1]; Table 28, per mouse APAP 4.6 mg, NAC/Cys/Met 3.5 mg, PC 0.9 mg, MSM 0.2 mg, IB 0.1 mg): 91.59%
Weight ratio Day 0-Day 2 ([1]; Table 31, APAP 4.6 mg with NAC/Cys/Met 3.5 mg, MSM 0.1 mg + IB 0.1 mg after 1.5 h, PC 0.9 mg after 3 h): 91.23%
Weight ratio Day 0-Day 2 ([1]; Table 34, per mouse APAP 4.6 mg, NAC/Cys/Met 3.5 mg): 93.26%
IFN-γ levels secreted by ConA-activated splenocytes [2]: 259 pg/mL
ALT (average ± std. dev.) (toxicity induced by APAP [3]; [9]): 14,360 ± 4,370.52 IU/L
AST (average ± std. dev.) (toxicity induced by APAP [3]; [9]): 18,920.00 ± 12,192.04 IU/L
ALT (average ± std. dev.) (toxicity induced by APAP [3]; [10]): 5,617.50 ± 1,832.77 IU/L
AST (average ± std. dev.) (toxicity induced by APAP [3]; [10]): 3,672.67 ± 1,965.99 IU/L
ALT (average ± std. dev.) (toxicity induced by APAP [3]; [11]): 8,880.00 ± 2,624.31 IU/L
AST (average ± std. dev.) (toxicity induced by APAP [3]; [11]): 5,848.67 ± 1,993.43 IU/L
ALT (average ± std. dev.) (toxicity induced by APAP [3]; [12]): 7,790.0 ± 2,175.9 IU/L
AST (average ± std. dev.) (toxicity induced by APAP [3]; [12]): 4,883.3 ± 1,549.4 IU/L
ALT (average ± std. dev.) (toxicity induced by APAP [3]; [13]): 6,421.67 ± 2,914.38 IU/L
AST (average ± std. dev.) (toxicity induced by APAP [3]; [13]): 3,686.67 ± 2,168.08 IU/L
ALT (average ± std. dev.) (toxicity induced by APAP [3]; [14]): 7,530.00 ± 2,339.06 IU/L
AST (average ± std. dev.) (toxicity induced by APAP [3]; [14]): 4,988.67 ± 878.44 IU/L
ALT (average ± std. dev.) (toxicity induced by APAP [3]; [15]): 5,739.25 ± 2,536.44 IU/L
AST (average ± std. dev.) (toxicity induced by APAP [3]; [15]): 4,374.00 ± 2,384.21 IU/L
ALT (average ± std. dev.) (toxicity induced by APAP [3]; [16]): 7,772.50 ± 1,771.00 IU/L
AST (average ± std. dev.) (toxicity induced by APAP [3]; [16]): 6,310.00 ± 2,127.07 IU/L
ALT (average ± std. dev.) (toxicity induced by APAP [3]; [17]): 9,040 ± 3,472.64 IU/L
AST (average ± std. dev.) (toxicity induced by APAP [3]; [17]): 6,560 ± 2,618.34 IU/L
ALT (average ± std. dev.) (toxicity induced by APAP [3]; [18]): 20,160.00 ± 9,678.28 IU/L
AST (average ± std. dev.) (toxicity induced by APAP [3]; [18]): 20,001.00 ± 11,998.16 IU/L
ALT (average ± std. dev.) (toxicity induced by APAP [3]; [19]): 8,918.00 ± 2,955.74 IU/L
AST (average ± std. dev.) (toxicity induced by APAP [3]; [19]): 6,586.67 ± 4,204.58 IU/L
AST (average ± std. dev.) (toxicity induced by APAP [3]; Table 25, 24 h, PO, per mouse APAP 4 mg, MSM 0.25 mg, IB 0.1 mg): 4,303.33 ± 2,163.30 IU/L
ALT (average ± std. dev.) (toxicity induced by APAP [3]; [20]): 10285.00 ± 4435.22 IU/L
AST (average ± std. dev.) (toxicity induced by APAP [3]; [20]): 7796.00 ± 5000.46 IU/L
ALT (average ± std. dev.) (toxicity induced by APAP [3]; [21]): 11210.83 ± 7589.19 IU/L
AST (average ± std. dev.) (toxicity induced by APAP [3]; [21]): 10577.33 ± 11375.63 IU/L
ALT (average ± std. dev.) (toxicity induced by APAP [3]; [22]): 9002.50 ± 4211.03 IU/L
AST (average ± std. dev.) (toxicity induced by APAP [3]; [22]): 5684.00 ± 2307.64 IU/L
histological liver sections (toxicity induced by APAP [4]; FIG. 1, groups of Table 5, 24 h after APAP 4 mg/mouse): diffuse damage to hepatocytes
histological liver sections (toxicity induced by APAP [4]; FIG. 2, groups of Table 7, 24 h after APAP 4 mg/mouse): diffuse damage to hepatocytes
histological liver sections (toxicity induced by APAP [4]; FIG. 3, groups of Table 10, 24 h after APAP 4 mg/mouse): diffuse damage to hepatocytes
histological liver sections (toxicity induced by APAP [4]; FIG. 4, groups of Table 16, 24 h after APAP 4 mg/mouse): diffuse damage to hepatocytes
histological liver sections (toxicity induced by APAP [4]; FIG. 6, groups of Table 26, 24 h after APAP 4.6 mg/mouse): diffuse damage to hepatocytes
histological liver sections (toxicity induced by APAP [4]; FIG. 7, groups of Table 29, 24 h after APAP 4.6 mg/mouse): diffuse damage to hepatocytes
histological liver sections (toxicity induced by APAP [4]; FIG. 8, groups of Table 32, 24 h after APAP 4.6 mg/mouse): diffuse damage to hepatocytes

COc1cc([C@@H]2Oc3cc([C@H]4Oc5cc(O)cc(O)c5C(=O)[C@@H]4O)ccc3O[C@H]2CO)ccc1O [silybin B]
effect on liver enzymes serum levels (toxicity induced by APAP [3]): ineffective in reducing liver enzymes serum levels
beneficial effect on acetaminophen-induced liver toxicity (toxicity induced by APAP [3]): did not show a beneficial effect

COc1cc([C@H]2Oc3ccc([C@H]4Oc5cc(O)cc(O)c5C(=O)[C@@H]4O)cc3O[C@@H]2CO)ccc1O [IA, Isosilybin A]
effect on liver enzymes serum levels (toxicity induced by APAP [3]): ineffective in reducing liver enzymes serum levels
beneficial effect on acetaminophen-induced liver toxicity (toxicity induced by APAP [3]): did not show a beneficial effect
